Patent US20250041429A1, “COMPOUND HAVING BTK PROTEIN DEGRADATION ACTIVITY, AND MEDICAL USES THEREOF” (UBIX THERAPEUTICS, INC., priority 2021, published 2025)

Target: T1, BTK protein (Homo sapiens, UniProt Q06187)
T1 construct: endogenous in cells; host or cells: TMD-8 cells
Test: Measurement of BTK protein degradation ability in TMD-8 cells (Western blotting)
Format: cell-based
Conditions: harvested after 24 hours; for BTK degradation (%) 1 nM: compound 1 nM; for BTK degradation (%) 10 nM: compound 10 nM; for BTK degradation (%) 100 nM: compound 100 nM
Procedure, shortened: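 BTK levels were measured by immunoblotting of equal-protein RIPA lysates, normalized to GAPDH or β-actin, with chemiluminescent or infrared detection. Lysates came from TMD-8 cells exposed to compound for 24 h at final concentrations of 0.1, 1, 10 μM or 0.0001–0.1 μM, against a DMSO control.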

T1 sequence (Q06187 whole entry): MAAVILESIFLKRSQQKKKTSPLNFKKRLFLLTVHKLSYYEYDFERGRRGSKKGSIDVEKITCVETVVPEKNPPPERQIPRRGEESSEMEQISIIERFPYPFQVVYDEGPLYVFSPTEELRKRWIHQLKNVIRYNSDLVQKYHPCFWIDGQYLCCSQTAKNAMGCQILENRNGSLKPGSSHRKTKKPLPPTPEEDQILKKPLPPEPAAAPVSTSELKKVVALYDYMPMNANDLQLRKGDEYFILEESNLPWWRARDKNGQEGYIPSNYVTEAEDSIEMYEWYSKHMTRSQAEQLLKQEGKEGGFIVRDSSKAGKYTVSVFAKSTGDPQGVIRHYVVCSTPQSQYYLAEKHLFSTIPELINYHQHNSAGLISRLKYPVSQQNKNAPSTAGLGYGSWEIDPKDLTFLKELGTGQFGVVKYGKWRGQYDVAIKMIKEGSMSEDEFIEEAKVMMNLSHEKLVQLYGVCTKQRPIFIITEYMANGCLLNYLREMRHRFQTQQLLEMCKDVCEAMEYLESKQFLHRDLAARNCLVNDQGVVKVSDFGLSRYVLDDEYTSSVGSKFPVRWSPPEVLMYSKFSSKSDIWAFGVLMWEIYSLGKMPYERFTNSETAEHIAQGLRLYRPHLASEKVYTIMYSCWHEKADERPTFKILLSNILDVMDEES

Structure (SMILES)	BTK degradation (%) 1 nM	BTK degradation (%) 10 nM	BTK degradation (%) 100 nM
Cc1cc(-c2ccnc(Nc3cnn(C4CCN(CC5CN(c6ccc7c(c6)C(=O)N(C6CCC(=O)NC6=O)C7=O)C5)CC4)c3)n2)ccc1CNC(=O)c1cnn(C(C)C)c1 (stereo not drawn) [Example 36, N-(4-(2-((1-(1-((1-(2-(2,6-dioxopiperidin-3-yl)-1,3-dioxoisoindolin-5-yl)azetidin-3-yl)methyl)piperidin-4-yl)-1H-pyrazol-4-yl)amino)pyrimidin-4-yl)-2-methylbenzyl)-1-isopropyl-1H-pyrazole-4-carboxamide]	60%	94%	99%
Cc1cc(-c2ccnc(Nc3ccc(N4CCN(CC5CCN(C(=O)c6cccc(N7CCC(=O)NC7=O)c6)CC5)CC4)cc3)n2)ccc1CNC(=O)N1CC(OC(C)C)C1 [Example 89, N-(4-(2-((4-(4-((1-(3-(2,4-dioxotetrahydropyrimidin-1 (2H)-yl)benzoyl)piperidin-4-yl)methyl)piperazin-1-yl)phenyl)amino)pyrimidin-4-yl)-2-methylbenzyl)-3-isopropoxyazetidine-1-carboxamide]	−0.5%	33%	87%
Cc1cc(-c2ccnc(Nc3ccc(N4CCN(CC5CCN(c6ccc(NC7CCC(=O)NC7=O)cc6F)CC5)CC4)cc3)n2)ccc1CNC(=O)c1cn(C(C)(C)C)nn1 (stereo not drawn) [Example 72, 1-(tert-butyl)-N-(4-(2-((4-(4-((1-(4-((2,6-dioxopiperidin-3-yl)amino)-2-fluorophenyl)piperidin-4-yl)methyl)piperazin-1-yl)phenyl)amino)pyrimidin-4-yl)-2-methylbenzyl)-1H-1,2,3-triazole-4-carboxamide]	62.5%	95.5%	99.0%
Cc1cc(-c2ccnc(Nc3ccc(N4CCN(CC5CCN(c6ccc(N7CCC(=O)NC7=O)cc6)CC5)CC4)nc3)n2)ccc1CNC(=O)c1cn(C(C)(C)C)nn1 [Example 77]	57.5%	96.0%	99.5%
Cc1cc(-c2ccnc(Nc3ccc(C4CCN(CC5CCN(c6ccc(N7CCC(=O)NC7=O)cc6)CC5)CC4)cc3)n2)ccc1CNC(=O)c1cn(C(C)(C)C)nn1 [Example 79, 1-(tert-butyl)-N-(4-(2-((4-(1-((1-(4-(2,4-dioxotetrahydropyrimidin-1 (2H)-yl)phenyl)piperidin-4-yl)methyl)piperidin-4-yl)phenyl)amino)pyrimidin-4-yl)-2-methylbenzyl)-1H-1,2,3-triazole-4-carboxamide]	26.0%	92.5%	98.0%
Cc1cc(-c2ccnc(Nc3ccc(C4CCN(CC5CCN(c6cccc(N7CCC(=O)NC7=O)c6)CC5)CC4)cc3)n2)ccc1CNC(=O)c1cnn(C(C)(C)C)c1 [Example 85, 1-(tert-butyl)-N-(4-(2-((4-(1-((1-(3-(2,4-dioxotetrahydropyrimidin-1 (2H)-yl)phenyl)piperidin-4-yl)methyl)piperidin-4-yl)phenyl)amino)pyrimidin-4-yl)-2-methylbenzyl)-1H-pyrazole-4-carboxamide]	45.5%	93.5%	98.5%
Cc1cc(-c2ccnc(Nc3ccc(N4CCN(CC5CN(C(=O)c6cccc(NC7CCC(=O)NC7=O)c6)C5)CC4)cc3)n2)ccc1CNC(=O)c1cnn(C(C)(C)C)c1 (stereo not drawn) [Example 96, 1-(tert-butyl)-N-(4-(2-((4-(4-((1-(3-((2,6-dioxopiperidin-3-yl)amino)benzoyl)azetidin-3-yl)methyl)piperazin-1-yl)phenyl)amino)pyrimidin-4-yl)-2-methylbenzyl)-1H-pyrazole-4-carboxamide]	70.0%	95.5%	98.0%

Next, values leading:

BTK degradation (%) 1 nM	BTK degradation (%) 10 nM	BTK degradation (%) 100 nM	Structure (SMILES)
46.5%	92.0%	98.5%	Cc1cc(-c2ccnc(Nc3ccc(C4CCN(CC5CCN(C(=O)c6cccc(NC7CCC(=O)NC7=O)c6)CC5)CC4)cc3)n2)ccc1CNC(=O)N1CC(OC(C)C)C1 (stereo not drawn) [Example 99, N-(4-(2-((4-(1-((1-(3-((2,6-dioxopiperidin-3-yl)amino)benzoyl)piperidin-4-yl)methyl)piperidin-4-yl)phenyl)amino)pyrimidin-4-yl)-2-methylbenzyl)-3-isopropoxyazetidine-1-carboxamide]
41.5%	91.0%	99.5%	Cc1cc(-c2ccnc(Nc3ccc(N4CCC(CN5CCC(c6ccc(OC7CCC(=O)NC7=O)cc6)CC5)CC4)cc3)n2)ccc1CNC(=O)N1CC(OC(C)C)C1 (stereo not drawn) [Example 119, N-(4-(2-((4-(4-((4-(4-((2,6-dioxopiperidin-3-yl)oxy)phenyl)piperidin-1-yl)methyl)piperidin-1-yl)phenyl)amino)pyrimidin-4-yl)-2-methylbenzyl)-3-isopropoxyazetidine-1-carboxamide]
15.5%	68.0%	95.0%	Cc1cc(-c2ccnc(Nc3ccc(N4CCC(CN5CCC(c6ccc(N7CCC(=O)NC7=O)cc6)CC5)CC4)cc3)n2)ccc1CNC(=O)c1cn(C(C)(C)C)nn1 [Example 139, 1-(tert-butyl)-N-(4-(2-((4-(4-((4-(4-(2,4-dioxotetrahydropyrimidin-1 (2H)-yl)phenyl)piperidin-1-yl)methyl)piperidin-1-yl)phenyl)amino)pyrimidin-4-yl)-2-methylbenzyl)-1H-1,2,3-triazole-4-carboxamide]
25.0%	81.5%	97.0%	Cc1cc(-c2ccnc(Nc3ccc(N4CCC(CN5CCC(c6ccc(NC7CCC(=O)NC7=O)cc6)CC5)CC4)cc3)n2)cnc1CNC(=O)c1cn(C(C)(C)C)nn1 (stereo not drawn) [Example 137, 1-(tert-butyl)-N-((5-(2-((4-(4-((4-(4-((2,6-dioxopiperidin-3-yl)amino)phenyl)piperidin-1-yl)methyl)piperidin-1-yl)phenyl)amino)pyrimidin-4-yl)-3-methylpyridin-2-yl)methyl)-1H-1,2,3-triazole-4-carboxamide]
17.5%	92.5%	100.0%	Cc1cc(-c2ccnc(Nc3ccc(N4CCC(CN5CCC(c6ccc(NC7CCC(=O)NC7=O)cc6)CC5)CC4)cc3)n2)ccc1CNC(=O)N1CC(OC(C)C)C1 (stereo not drawn) [Example 123, N-(4-(2-((4-(4-((4-(4-((2,6-dioxopiperidin-3-yl)amino)phenyl)piperidin-1-yl)methyl)piperidin-1-yl)phenyl)amino)pyrimidin-4-yl)-2-methylbenzyl)-3-isopropoxyazetidine-1-carboxamide]
40.5%	91.0%	98.0%	Cc1cc(-c2ccnc(Nc3ccc(C4CCN(CC5CN(C(=O)c6cccc(NC7CCC(=O)NC7=O)c6)C5)CC4)cc3)n2)ccc1CNC(=O)N1CC(OC(C)C)C1 (stereo not drawn) [Example 100, N-(4-(2-((4-(1-((1-(3-((2,6-dioxopiperidin-3-yl)amino)benzoyl)azetidin-3-yl)methyl)piperidin-4-yl)phenyl)amino)pyrimidin-4-yl)-2-methylbenzyl)-3-isopropoxyazetidine-1-carboxamide]
